Results published in ChEMBL document CHEMBL5375952, “Discovery of Novel 8-Hydroxyquinoline Derivatives with Potent In Vitro and In Vivo Antifungal Activity” (J Med Chem, 2023).
Values after ≈ are worked out from the molar mass of the structure shown.

Key:
Candida albicans [1] = experiment: Antifungal activity against Candida albicans SC5314 assessed as fungal growth inhibition incubated for 48 hrs by broth microdilution method; format: functional
Candida albicans [2] = experiment: Antifungal activity against Candida albicans 21 assessed as fungal growth inhibition incubated for 48 hrs by broth microdilution method; format: functional
Candida albicans [3] = experiment: Antifungal activity against Candida albicans 22 assessed as fungal growth inhibition incubated for 48 hrs by broth microdilution method; format: functional
Nakaseomyces glabratus [4] = experiment: Antifungal activity against Candida glabrata 201 assessed as fungal growth inhibition incubated for 48 hrs by broth microdilution method; format: functional
Nakaseomyces glabratus [5] = experiment: Antifungal activity against Candida glabrata 202 assessed as fungal growth inhibition incubated for 48 hrs by broth microdilution method; format: functional
Nakaseomyces glabratus [6] = experiment: Antifungal activity against Candida glabrata 205 assessed as fungal growth inhibition incubated for 48 hrs by broth microdilution method; format: functional
Pichia kudriavzevii [7] = experiment: Antifungal activity against Candida krusei 68 assessed as fungal growth inhibition incubated for 48 hrs by broth microdilution method; format: functional
Pichia kudriavzevii [8] = experiment: Antifungal activity against Candida krusei 69 assessed as fungal growth inhibition incubated for 48 hrs by broth microdilution method; format: functional
Pichia kudriavzevii [9] = experiment: Antifungal activity against Candida krusei 477 assessed as fungal growth inhibition incubated for 48 hrs by broth microdilution method; format: functional
Candida parapsilosis [10] = experiment: Antifungal activity against Candida parapsilosis 105 assessed as fungal growth inhibition incubated for 48 hrs by broth microdilution method; format: functional; settings: Lodderomyces parapsilosis
Candida parapsilosis [11] = experiment: Antifungal activity against Candida parapsilosis 125 assessed as fungal growth inhibition incubated for 48 hrs by broth microdilution method; format: functional; settings: Lodderomyces parapsilosis
Candida tropicalis [12] = experiment: Antifungal activity against Candida tropicalis 176 assessed as fungal growth inhibition incubated for 48 hrs by broth microdilution method; format: functional
Candida tropicalis [13] = experiment: Antifungal activity against Candida tropicalis 178 assessed as fungal growth inhibition incubated for 48 hrs by broth microdilution method; format: functional
Candida tropicalis [14] = experiment: Antifungal activity against Candida tropicalis 184 assessed as fungal growth inhibition incubated for 48 hrs by broth microdilution method; format: functional
Cryptococcus neoformans [15] = experiment: Antifungal activity against Cryptococcus neoformans 443 assessed as fungal growth inhibition incubated for 48 hrs by broth microdilution method; format: functional
Cryptococcus neoformans [16] = experiment: Antifungal activity against Cryptococcus neoformans 444 assessed as fungal growth inhibition incubated for 48 hrs by broth microdilution method; format: functional
Cryptococcus neoformans [17] = experiment: Antifungal activity against Cryptococcus neoformans 445 assessed as fungal growth inhibition incubated for 48 hrs by broth microdilution method; format: functional
Aspergillus fumigatus [18] = experiment: Antifungal activity against Aspergillus fumigatus A assessed as fungal growth inhibition incubated for 48 hrs by broth microdilution method; format: functional
Aspergillus fumigatus [19] = experiment: Antifungal activity against Aspergillus fumigatus 7544 assessed as fungal growth inhibition incubated for 48 hrs by broth microdilution method; format: functional
[20] = Cytotoxicity against human Caco-2 cells assessed as cell growth inhibition incubated for 24 hrs by CCK8 assay; format: toxicity, cell-based
Candida albicans [21] = experiment: Antifungal activity against Candida albicans 25 assessed as fungal growth inhibition incubated for 48 hrs by broth microdilution method; format: functional
Candida albicans [22] = experiment: Antifungal activity against Candida albicans 337 assessed as fungal growth inhibition incubated for 48 hrs by broth microdilution method; format: functional
Candida albicans [23] = experiment: Antifungal activity against Candida albicans 338 assessed as fungal growth inhibition incubated for 48 hrs by broth microdilution method; format: functional
[Candida] auris [24] = Antifungal activity against Candida auris 276 assessed as fungal growth inhibition incubated for 48 hrs by broth microdilution method; format: functional; settings: Candidozyma auris
[Candida] auris [25] = Antifungal activity against Candida auris 277 assessed as fungal growth inhibition incubated for 48 hrs by broth microdilution method; format: functional; settings: Candidozyma auris
[Candida] auris [26] = Antifungal activity against Candida auris 278 assessed as fungal growth inhibition incubated for 48 hrs by broth microdilution method; format: functional; settings: Candidozyma auris
[Candida] auris [27] = Antifungal activity against Candida auris CBS 12372 assessed as fungal growth inhibition incubated for 48 hrs by broth microdilution method; format: functional; settings: Candidozyma auris
[Candida] auris [28] = Antifungal activity against Candida auris 887 assessed as fungal growth inhibition incubated for 48 hrs by broth microdilution method; format: functional; settings: Candidozyma auris
[Candida] auris [29] = Antifungal activity against Candida auris 888 assessed as fungal growth inhibition incubated for 48 hrs by broth microdilution method; format: functional; settings: Candidozyma auris
Nakaseomyces glabratus [30] = experiment: Antifungal activity against Candida glabrata 203 assessed as fungal growth inhibition incubated for 48 hrs by broth microdilution method; format: functional
Nakaseomyces glabratus [31] = experiment: Antifungal activity against Candida glabrata 204 assessed as fungal growth inhibition incubated for 48 hrs by broth microdilution method; format: functional
Nakaseomyces glabratus [32] = experiment: Antifungal activity against Candida glabrata 222 assessed as fungal growth inhibition incubated for 48 hrs by broth microdilution method; format: functional
Pichia kudriavzevii [33] = experiment: Antifungal activity against Candida krusei 472 assessed as fungal growth inhibition incubated for 48 hrs by broth microdilution method; format: functional
Pichia kudriavzevii [34] = experiment: Antifungal activity against Candida krusei 474 assessed as fungal growth inhibition incubated for 48 hrs by broth microdilution method; format: functional
Candida parapsilosis [35] = experiment: Antifungal activity against Candida parapsilosis 104 assessed as fungal growth inhibition incubated for 48 hrs by broth microdilution method; format: functional; settings: Lodderomyces parapsilosis
Candida parapsilosis [36] = experiment: Antifungal activity against Candida parapsilosis 106 assessed as fungal growth inhibition incubated for 48 hrs by broth microdilution method; format: functional; settings: Lodderomyces parapsilosis
Candida tropicalis [37] = experiment: Antifungal activity against Candida tropicalis 172 assessed as fungal growth inhibition incubated for 48 hrs by broth microdilution method; format: functional
Candida tropicalis [38] = experiment: Antifungal activity against Candida tropicalis 177 assessed as fungal growth inhibition incubated for 48 hrs by broth microdilution method; format: functional
Candida tropicalis [39] = experiment: Antifungal activity against Candida tropicalis 182 assessed as fungal growth inhibition incubated for 48 hrs by broth microdilution method; format: functional
Cryptococcus neoformans [40] = experiment: Antifungal activity against Cryptococcus neoformans H99 assessed as fungal growth inhibition incubated for 48 hrs by broth microdilution method; format: functional
Cryptococcus neoformans [41] = experiment: Antifungal activity against Cryptococcus neoformans SH68 assessed as fungal growth inhibition incubated for 48 hrs by broth microdilution method; format: functional
Cryptococcus neoformans [42] = experiment: Antifungal activity against Cryptococcus neoformans 56992 assessed as fungal growth inhibition incubated for 48 hrs by broth microdilution method; format: functional
Cryptococcus neoformans [43] = experiment: Antifungal activity against Cryptococcus neoformans HN1 assessed as fungal growth inhibition incubated for 48 hrs by broth microdilution method; format: functional
Cryptococcus neoformans [44] = experiment: Antifungal activity against Cryptococcus neoformans HN2 assessed as fungal growth inhibition incubated for 48 hrs by broth microdilution method; format: functional
Cryptococcus neoformans [45] = experiment: Antifungal activity against Cryptococcus neoformans HN2-40 assessed as fungal growth inhibition incubated for 48 hrs by broth microdilution method; format: functional
Cryptococcus neoformans [46] = experiment: Antifungal activity against Cryptococcus neoformans HN17 assessed as fungal growth inhibition incubated for 48 hrs by broth microdilution method; format: functional
Cryptococcus neoformans [47] = experiment: Antifungal activity against Cryptococcus neoformans HN19 assessed as fungal growth inhibition incubated for 48 hrs by broth microdilution method; format: functional
Cryptococcus neoformans [48] = experiment: Antifungal activity against Cryptococcus neoformans HN20 assessed as fungal growth inhibition incubated for 48 hrs by broth microdilution method; format: functional
[49] = Antifungal activity against Cryptococcus gattii WM178 assessed as fungal growth inhibition incubated for 48 hrs by broth microdilution method; format: functional, Cryptococcus gattii VGI
[50] = Antifungal activity against Cryptococcus gattii WM179 assessed as fungal growth inhibition incubated for 48 hrs by broth microdilution method; format: functional, Cryptococcus gattii VGI
[51] = Antifungal activity against Cryptococcus gattii E566 assessed as fungal growth inhibition incubated for 48 hrs by broth microdilution method; format: functional, Cryptococcus gattii VGI
[52] = Antifungal activity against Cryptococcus gattii SCZ20024 assessed as fungal growth inhibition incubated for 48 hrs by broth microdilution method; format: functional, Cryptococcus gattii VGI
[53] = Antifungal activity against Cryptococcus gattii SCZ20031 assessed as fungal growth inhibition incubated for 48 hrs by broth microdilution method; format: functional, Cryptococcus gattii VGI

CCN(CC)c1ccc(C(NC(=O)C(C)C)c2ccc3cccnc3c2O)cc1 (stereo not drawn)
MIC (Candida albicans [1]): 0.063 µg/mL (≈ 0.161 µM)
MIC (Candida albicans [2]): ≤ 0.125 µg/mL
MIC (Candida albicans [3]): 0.063 µg/mL (≈ 0.161 µM)
MIC (Nakaseomyces glabratus [4]): 0.032 µg/mL (≈ 0.0817 µM)
MIC (Nakaseomyces glabratus [5]): 0.032 µg/mL (≈ 0.0817 µM)
MIC (Nakaseomyces glabratus [6]): 0.125 µg/mL (≈ 0.319 µM)
MIC (Pichia kudriavzevii [7]): 0.032 µg/mL (≈ 0.0817 µM)
MIC (Pichia kudriavzevii [8]): 0.125 µg/mL (≈ 0.319 µM)
MIC (Pichia kudriavzevii [9]): 0.125 µg/mL (≈ 0.319 µM)
MIC (Candida parapsilosis [10]): 0.125 µg/mL (≈ 0.319 µM)
MIC (Candida parapsilosis [11]): 0.125 µg/mL (≈ 0.319 µM)
MIC (Candida tropicalis [12]): 0.016 µg/mL (≈ 0.0409 µM)
MIC (Candida tropicalis [13]): 0.032 µg/mL (≈ 0.0817 µM)
MIC (Candida tropicalis [14]): 0.125 µg/mL (≈ 0.319 µM)
MIC (Cryptococcus neoformans [15]): 0.016 µg/mL (≈ 0.0409 µM)
MIC (Cryptococcus neoformans [16]): 0.016 µg/mL (≈ 0.0409 µM)
MIC (Cryptococcus neoformans [17]): 0.016 µg/mL (≈ 0.0409 µM)
MIC (Aspergillus fumigatus [18]): 0.5 µg/mL (≈ 1.28 µM)
MIC (Aspergillus fumigatus [19]): 1 µg/mL (≈ 2.55 µM)
IC50 at 24 h [20]: 72.6 µg/mL (≈ 185 µM)
MIC (Candida albicans [21]): 0.063 µg/mL (≈ 0.161 µM)
MIC (Candida albicans [22]): 0.032 µg/mL (≈ 0.0817 µM)
MIC (Candida albicans [23]): 0.063 µg/mL (≈ 0.161 µM)
MIC ([Candida] auris [24]): 0.063 µg/mL (≈ 0.161 µM)
MIC ([Candida] auris [25]): 0.063 µg/mL (≈ 0.161 µM)
MIC ([Candida] auris [26]): 0.125 µg/mL (≈ 0.319 µM)
MIC ([Candida] auris [27]): 0.063 µg/mL (≈ 0.161 µM)
MIC ([Candida] auris [28]): 0.25 µg/mL (≈ 0.639 µM)
MIC ([Candida] auris [29]): 0.25 µg/mL (≈ 0.639 µM)
MIC (Nakaseomyces glabratus [30]): 0.016 µg/mL (≈ 0.0409 µM)
MIC (Nakaseomyces glabratus [31]): 0.016 µg/mL (≈ 0.0409 µM)
MIC (Nakaseomyces glabratus [32]): 0.125 µg/mL (≈ 0.319 µM)
MIC (Pichia kudriavzevii [33]): 0.125 µg/mL (≈ 0.319 µM)
MIC (Pichia kudriavzevii [34]): 0.125 µg/mL (≈ 0.319 µM)
MIC (Candida parapsilosis [35]): 0.016 µg/mL (≈ 0.0409 µM)
MIC (Candida parapsilosis [36]): 0.063 µg/mL (≈ 0.161 µM)
MIC (Candida tropicalis [37]): 0.063 µg/mL (≈ 0.161 µM)
MIC (Candida tropicalis [38]): 0.125 µg/mL (≈ 0.319 µM)
MIC (Candida tropicalis [39]): 0.125 µg/mL (≈ 0.319 µM)
MIC (Cryptococcus neoformans [40]): 0.125 µg/mL (≈ 0.319 µM)
MIC (Cryptococcus neoformans [41]): < 0.016 µg/mL
MIC (Cryptococcus neoformans [42]): 0.032 µg/mL (≈ 0.0817 µM)
MIC (Cryptococcus neoformans [43]): 0.063 µg/mL (≈ 0.161 µM)
MIC (Cryptococcus neoformans [44]): 0.063 µg/mL (≈ 0.161 µM)
MIC (Cryptococcus neoformans [45]): < 0.016 µg/mL
MIC (Cryptococcus neoformans [46]): 0.063 µg/mL (≈ 0.161 µM)
MIC (Cryptococcus neoformans [47]): 0.063 µg/mL (≈ 0.161 µM)
MIC (Cryptococcus neoformans [48]): 0.016 µg/mL (≈ 0.0409 µM)
MIC [49]: 0.031 µg/mL (≈ 0.0792 µM)
MIC [50]: 0.031 µg/mL (≈ 0.0792 µM)
MIC [51]: 0.031 µg/mL (≈ 0.0792 µM)
MIC [52]: 0.031 µg/mL (≈ 0.0792 µM)
MIC [53]: 0.031 µg/mL (≈ 0.0792 µM)
